Measured values taken from patent US7875601B2, “Cancer treatment with epothilones” (Novartis AG, priority 1998, dated 2011).
Where two headings read alike, the source gives them in different places.

Tests used:
[1] = system: human estrogen-dependent ZR-75-1 breast tumors; test: Antitumor effect against s.c. transplanted ZR-75-1 breast tumors; type: in vivo, female BALB/c nude mice
Protocol: (§1) Female or male BALB/c nu/nu (nude) mice are kept under sterile conditions (10 to 12 mice per Type III cage) with free access to food and water. Mice weigh between 20 and 25 grams at the time of tumor implantation. Tumors are established by subcutaneous injection of cells (minimum 2×10^6 cells in 100 μl PBS or medium) in carrier mice (4-8 mice per cell line). The resulting tumors are serially passaged for a minimum of three consecutive transplantations prior to start of treatment. Tumor fragments (approx. 25 mg) are implanted s.c. into the left flank of animals with a 13-gauge trocar needle while the mice are exposed to Forene (Abbott, Switzerland) anesthesia.
(§2) Tumor growth and body weights are monitored once or twice weekly. All treatments are administered intravenously (i.v.) and are initiated when a mean tumor volume of approximately 100 to 250 mm^3 is attained, depending upon the tumor type. Tumor volumes are determined using the formula […] (see Cancer Chemother. Pharmacol. 24:148-154, [1989]). Treatments with epothilone B vary the dose and the frequency of administration. Comparator agents are administered according to previously determined optimal treatment regimens. In addition to presenting changes in tumor volumes over the course of treatment, antitumor activity is expressed as T/C % (mean increase of tumor volumes of treated animals divided by the mean increase of tumor volumes of control animals multiplied by 100). Tumor. regression (%) represents the smallest mean tumor volume compared to the mean tumor volume at the start of treatment, according to the formula Regression (%)=(1−Vend/Vstart)×100(Vend=final mean tumor volume, Vstart=mean tumor volume at the start of treatment. Any animals in which the tumor has reached a size exceeding approximately 1.5 to 2.5 cm^3 are sacrificed. Details can be found below.

[2] = system: human COLO 205 colon tumors; type: in vivo, female BALB/c nude mice; settings: 4 mg/kg, day 32
Protocol: as §1, §2

[3] = system: KB-8511 (Epidermoid, MDR); test: Antiproliferative assay, KB-8511; type: cell-based, human
Protocol: The human epidermal (mouth) carcinoma cell line KB-8511 (a P-gp over-expressing cell line derived from the epidermoid (mouth) KB-31 carcinoma cell line) is obtained from Dr. R. M. Baker, Roswell Park Memorial Institute (Buffalo, N.Y., USA) (for description see Akiyama et al., Somat. Cell. Mol. Genetics 11, 117-126 (1985) and Fojo A., et al., Cancer Res. 45, 3002-3007 (1985)) and is cultured as previously described (Meyer, T., et al., Int. J. Cancer 43 851-856 (1989)).
(§3) Antiproliferative assays are performed as previously described (Int. J. Cancer 43, 851-6 (1989)). Briefly, cells are seeded at 1.5×10^3 cells/well into 96-well microtiter plates and incubated overnight. Compounds are added in serial dilutions on day 1. The plates are then incubated for an additional 2 to 5 days, allowing for at least one cell doubling (cell line dependent), after which the cells are fixed with 3.3% v/v glutaraldehyde, washed with water and stained with 0.05% w/v methylene blue. After washing, the dye is eluted with 3% v/v HCl and the optical density measured at 665 nm with a SpectraMax 340 (Bucherer, Basel, Switzerland). IC50 values are determined by a computerized system (SoftPro, Bucherer, Basel, Switzerland) using the formula (OD test−OD start)/(OD control−OD start)×100. IC50 is defined as the drug concentration which leads to 50% of cells per well compared to control cultures (100%) at the end of incubation period.

[4] = system: HCT-15 (Colon); test: Antiproliferative assay, HCT-15; type: cell-based, human; settings: HCT-15, 5 d exposure, mean ± SD, n = 3; read-out: IC50 for growth inhibition
Text: Human colorectal adenocarcinoma cell line HCT-15 (ATCC CCL 225) is from the American Type Culture Collection (Rockville, Md., USA), and the cells are cultivated in vitro as recommended by the supplier. HCT-15 is an epithelial-like cell line. (Cancer Res. 39: 1020-25 [1979]) that is multi-drug resistant by virtue of over-expression of P-glycoprotein (P-gp, gp170, MDR-1;Anticancer Res. 11: 1309-12 [1991]; J. Biol. Chem. 264: 18031-40 [1989]; Int. J. Cancer 1991; 49: 696-703 [1991]) and glutathione-dependent resistance mechanisms (Int. J. Cancer 1991; 49: 688-95 [1991]).
as §3, with “IC50 is defined as the drug concentration which leads to 50% of cells per well compared to control cultures (100%) at the end of incubation period.” left out

[5] = 1 mg/kg, i.v. every 7 days, day 47
[6] = 2 mg/kg, i.v. every 7 days, day 47
[7] = 4 mg/kg, i.v. every 7 days, day 47
[8] = 4 mg/kg, i.v. every 14 days, day 47

C/C(=C\c1csc(C)n1)[C@@H]1C[C@@H]2O[C@]2(C)CCC[C@H](C)[C@H](O)[C@@H](C)C(=O)C(C)(C)[C@@H](O)CC(=O)O1 [epothilone B]
% Body Weight Change [1, 5]: 2 ± 5% | Regression [1, 5]: none | Survival (No. alive/total) [1, 5]: 4/6 | T/C (%) [1, 5]: 86% | Δ Body Weight [1, 5]: 0.3 ± 1.2 g | Δ Tumor Volume (mm^3) [1, 5]: 393 ± 135 mm^3 | % Body Weight Change [1, 6]: −14 ± 6% | Regression [1, 6]: none | Survival (No. alive/total) [1, 6]: 5/6 | T/C (%) [1, 6]: 40% | Δ Body Weight [1, 6]: -3.5 ± 1.6 g | Δ Tumor Volume (mm^3) [1, 6]: 227 ± 76 mm^3 | T/C (%) ([1]; 4 mg/kg, i.v. every 7 days (days 19, 26 and 33), day 47): 1% | % Body Weight Change [1, 7]: −5 ± 3% | Survival (No. alive/total) [1, 7]: 3/6 | Δ Body Weight [1, 7]: -1.2 ± 0.6 g | Δ Tumor Volume (mm^3) [1, 7]: 29 ± 16 mm^3 | Regression ([1]; 4 mg/kg, i.v. every 7 days, transient): −8% | T/C (%) ([1]; 4 mg/kg, i.v. every 14 days (days 19 and 33), day 47): 46% | % Body Weight Change [1, 8]: −7 ± 5% | Regression [1, 8]: none | Survival (No. alive/total) [1, 8]: 4/6 | Δ Body Weight [1, 8]: -1.6 ± 1.1 g | Δ Tumor Volume (mm^3) [1, 8]: 208 ± 86 mm^3 | T/C ([2]; i.v. every 7 days (days 14, 21, 28)): Regressions | % Body Weight Change ([2]; i.v. every 7 days): −18 ± 1% | Regression ([2]; i.v. every 7 days): −87% | Survival (No. alive/total) ([2]; i.v. every 7 days): 5/7 | Δ Body Weight ([2]; i.v. every 7 days): -4.0 ± 0.2 g | Δ Tumor Volume (mm^3) ([2]; i.v. every 7 days): −83 ± 7 mm^3 | T/C ([2]; i.v. every 14 days (days 14 and 28)): Regressions | % Body Weight Change ([2]; i.v. every 14 days): −4 ± 4% | Regression ([2]; i.v. every 14 days): −69% | Survival (No. alive/total) ([2]; i.v. every 14 days): 7/7 | Δ Body Weight ([2]; i.v. every 14 days): -1.1 ± 1.0 g | Δ Tumor Volume (mm^3) ([2]; i.v. every 14 days): −62 ± 7 mm^3 | % Body Weight Change ([2]; i.v. once): 9 ± 1% | Regression ([2]; i.v. once): −66% | Survival (No. alive/total) ([2]; i.v. once): 5/7 | T/C ([2]; i.v. once): Regressions | Δ Body Weight ([2]; i.v. once): 2.0 ± 0.1 g | Δ Tumor Volume (mm^3) ([2]; i.v. once): −58 ± 11 mm^3 | IC50 ([3]; KB-8511, 2 d exposure, mean ± SD, read-out: IC50 for growth inhibition): 0.89 ± 0.47 nM | relative resistance, IC50 (resistant line)/IC50 (parental line) ([3]; KB-8511 vs parental line): (1.25) | IC50 [4]: 0.41 ± 0.15 nM
